Laboratory results as given in patent US4874856A, “3-(substituted)propenyl-7-(aminothiazolylacetamido) ceph-3-em-4-carboxylic acids and esters thereof” (Bristol-Myers Company, priority 1987, dated 1989).
In brackets after ≈: the same amount, converted by molar mass. Where two headings read alike, the source gives them in different places.

Legend:
Format in all cases: cell-based
[1] = test system: PCresistant S. aureus; experiment: In vitro MIC, two-fold serial agar dilution in Mueller-Hinton agar, GpIb strains; conditions: Staphylococcus aureus, 5 strains, read-out: Geometric mean of MIC, GpIb
Description: (§1) The in vitro antibacterial activity of the parent cephalosporanic acids of Formula I wherein R^4 is hydrogen is shown in Table 1 in terms of geometric mean of the Minimum Inhibitory Concentrations (MIC's) which were determined by the two-fold serial agar dilution method in Mueller-Hinton agar against 25 strains of test organisms in five groups.
GpIb: PCresistant S. aureus

[2] = test system: Cephalothin(CET)sensitive E. coli (2 strains), K. pneumoniae (1) an P. mirabilis (2); experiment: In vitro MIC, two-fold serial agar dilution in Mueller-Hinton agar, GnIa strains; conditions: 5 strains, read-out: Geometric mean of MIC, GnIa
Description: as §1
GnIa: Cephalothin(CET)sensitive E. coli (2 strains), K. pneumoniae (1) an […]

[3] = test system: CETresistant E. coli (3) and K. pneumoniae (2); experiment: In vitro MIC, two-fold serial agar dilution in Mueller-Hinton agar, GnIb strains; conditions: Escherichia coli, 5 strains, read-out: Geometric mean of MIC, GnIb
Description: as §1
GnIb: CETresistant E. coli (3) and K. pneumoniae (2)

[4] = test system: M. morcanii (1), E. cloacae (2) and S. marcescens (2); experiment: In vitro MIC, two-fold serial agar dilution in Mueller-Hinton agar, GnII strains; conditions: Enterobacter cloacae, read-out: Geometric mean of MIC, GnII
Description: as §1
GnII: M. morcanii (1), E. cloacae (2) and S. marcescens (2)

[5] = test system: Citrobacter freundii; experiment: In vitro MIC, Mueller-Hinton agar, inoculum 10^6 cells/ml
Excerpt: (§2) Table 6 is a comparison of the in vitro antibacterial activities of Compound 29 and the vinyl homolog thereof FK-482 against clinically important pathogens. Thirty-seven organisms were more than 4-fold more susceptible to Compound 29 than to FK-482. FK-482 has the following formula and is described by Takaya, et al. in U.S. Pat. No. 4,559,334 patented Dec. 17, 1985 (filed Oct. 20, 1983). [drawing 14]
(§3) *; Geometric mean of MIC (μg/ml)
(§4) Mueller-Hinton agar Inoculum size; 10^6 cells/ml

[6] = test system: Enterobacter aerogenes; experiment: as above; conditions: Klebsiella aerogenes
Excerpt: as §2, §3, §4

[7] = test system: Enterobacter cloacae; experiment: as above
Excerpt: as §2, §3, §4

[8] = test system: Morganella morganii; experiment: as above
Excerpt: as §2, §3, §4

[9] = test system: Proteus mirabilis; experiment: as above
Excerpt: as §2, §3, §4

[10] = test system: Proteus vulgaris; experiment: as above
Excerpt: as §2, §3, §4

[11] = test system: Providencia rettgeri; experiment: as above
Excerpt: as §2, §3, §4

[12] = test system: Serratia marcescens; experiment: as above
Excerpt: as §2, §3, §4

[13] = test system: Serratia species; experiment: as above
Excerpt: as §2, §3, §4

## C/C=C\C1=C(C(=O)O)N2C(=O)[C@@H](NC(=O)/C(=N\O)c3csc(N)n3)[C@H]2SC1 [Compound 29, 7β-[(Z)-2-(2-aminothiazol-4-yl)-2-(hydroxyimino)acetamido]-3-[(Z)-prop-1-en-1-yl]-3-cephem-4-carboxylic acid]
[1]
  MIC: 0.4 µg/mL (≈ 0.977 µM)
[2]
  MIC: 0.066 µg/mL (≈ 0.161 µM)
[3]
  MIC: 0.35 µg/mL (≈ 0.855 µM)
[4]
  MIC: 6.3 µg/mL (≈ 15.4 µM)
[5]; (GM) of the Citrobacter freundii strains, read-out: Geometric mean of MIC
  MIC: 1.7 µg/mL (≈ 4.15 µM)
[5]; strain A21312, read-out: MIC
  MIC: > 50 µg/mL
[5]; strain A22140, read-out: MIC
  MIC: 1.6 µg/mL (≈ 3.91 µM)
[5]; strain A22141, read-out: MIC
  MIC: 1.6 µg/mL (≈ 3.91 µM)
[5]; strain A22142, read-out: MIC
  MIC: 0.8 µg/mL (≈ 1.95 µM)
[5]; strain A22160, read-out: MIC
  MIC: 0.8 µg/mL (≈ 1.95 µM)
[5]; strain A22161, read-out: MIC
  MIC: 0.8 µg/mL (≈ 1.95 µM)
[5]; strain A22166, read-out: MIC
  MIC: 0.8 µg/mL (≈ 1.95 µM)
[5]; strain A22175, read-out: MIC
  MIC: 0.8 µg/mL (≈ 1.95 µM)
[5]; strain A22176, read-out: MIC
  MIC: 0.8 µg/mL (≈ 1.95 µM)
[5]; strain A22177, read-out: MIC
  MIC: 3.1 µg/mL (≈ 7.57 µM)
[6]; (GM) of the Enterobacter aerogenes strains, read-out: Geometric mean of MIC
  MIC: 4.9 µg/mL (≈ 12 µM)
[6]; strain A20940, read-out: MIC
  MIC: > 50 µg/mL
[6]; strain A20941, read-out: MIC
  MIC: 1.6 µg/mL (≈ 3.91 µM)
[6]; strain A20943, read-out: MIC
  MIC: 0.8 µg/mL (≈ 1.95 µM)
[6]; strain A20958, read-out: MIC
  MIC: 6.3 µg/mL (≈ 15.4 µM)
[6]; strain A20961, read-out: MIC
  MIC: 3.1 µg/mL (≈ 7.57 µM)
[6]; strain A20966, read-out: MIC
  MIC: 6.3 µg/mL (≈ 15.4 µM)
[6]; strain A20971, read-out: MIC
  MIC: 1.6 µg/mL (≈ 3.91 µM)
[6]; strain A20985, read-out: MIC
  MIC: > 50 µg/mL
[6]; strain A20994, read-out: MIC
  MIC: 6.3 µg/mL (≈ 15.4 µM)
[6]; strain A20996, read-out: MIC
  MIC: 0.8 µg/mL (≈ 1.95 µM)
[6]; strain A21013, read-out: MIC
  MIC: 3.1 µg/mL (≈ 7.57 µM)
[6]; strain A21036, read-out: MIC
  MIC: > 50 µg/mL
[6]; strain A21037, read-out: MIC
  MIC: 0.4 µg/mL (≈ 0.977 µM)
[6]; strain A21038, read-out: MIC
  MIC: 0.8 µg/mL (≈ 1.95 µM)
[6]; strain A21039, read-out: MIC
  MIC: 6.3 µg/mL (≈ 15.4 µM)
[6]; strain A21043, read-out: MIC
  MIC: 12.5 µg/mL (≈ 30.5 µM)
[6]; strain A21044, read-out: MIC
  MIC: 25 µg/mL (≈ 61.1 µM)
[6]; strain A21118, read-out: MIC
  MIC: 50 µg/mL (≈ 122 µM)
[6]; strain A21120, read-out: MIC
  MIC: 6.3 µg/mL (≈ 15.4 µM)
[6]; strain A21130-1, read-out: MIC
  MIC: 6.3 µg/mL (≈ 15.4 µM)
[6]; strain A21131, read-out: MIC
  MIC: 0.8 µg/mL (≈ 1.95 µM)
[6]; strain A21152, read-out: MIC
  MIC: 0.8 µg/mL (≈ 1.95 µM)
[6]; strain A21155, read-out: MIC
  MIC: 3.1 µg/mL (≈ 7.57 µM)
[6]; strain A21158, read-out: MIC
  MIC: 6.3 µg/mL (≈ 15.4 µM)
[6]; strain A21503, read-out: MIC
  MIC: 3.1 µg/mL (≈ 7.57 µM)
[7]; (GM) of the Enterobacter cloacae strains, read-out: Geometric mean of MIC
  MIC: 17 µg/mL (≈ 41.5 µM)
[7]; strain A 9655, read-out: MIC
  MIC: 50 µg/mL (≈ 122 µM)
[7]; strain A 9659, read-out: MIC
  MIC: > 50 µg/mL
[7]; strain A20344, read-out: MIC
  MIC: > 50 µg/mL
[7]; strain A20364, read-out: MIC
  MIC: 3.1 µg/mL (≈ 7.57 µM)
[7]; strain A20464, read-out: MIC
  MIC: 3.1 µg/mL (≈ 7.57 µM)
[7]; strain A20650, read-out: MIC
  MIC: 0.8 µg/mL (≈ 1.95 µM)
[7]; strain A22551, read-out: MIC
  MIC: > 50 µg/mL
[8]; (GM) of the Morganella morganii strains, read-out: Geometric mean of MIC
  MIC: 6.3 µg/mL (≈ 15.4 µM)
[8]; IFO3843, strain IFO 3843 MS-1, read-out: MIC
  MIC: 1.6 µg/mL (≈ 3.91 µM)
[8]; strain A 9636, read-out: MIC
  MIC: > 50 µg/mL
[8]; strain A20455, read-out: MIC
  MIC: 1.6 µg/mL (≈ 3.91 µM)
[9]; (GM) of the Proteus mirabilis strains, read-out: Geometric mean of MIC
  MIC: 0.084 µg/mL (≈ 0.205 µM)
[9]; IFO3849, strain IFO 3849 MS-1, read-out: MIC
  MIC: 0.1 µg/mL (≈ 0.244 µM)
[9]; strain A 9554, read-out: MIC
  MIC: 0.1 µg/mL (≈ 0.244 µM)
[9]; strain A 9702, read-out: MIC
  MIC: 0.05 µg/mL (≈ 0.122 µM)
[9]; strain A 9716, read-out: MIC
  MIC: 0.1 µg/mL (≈ 0.244 µM)
[9]; strain A20119, read-out: MIC
  MIC: 0.05 µg/mL (≈ 0.122 µM)
[9]; strain A20342, read-out: MIC
  MIC: 0.1 µg/mL (≈ 0.244 µM)
[9]; strain A20454, read-out: MIC
  MIC: 0.1 µg/mL (≈ 0.244 µM)
[9]; strain A21222, read-out: MIC
  MIC: 0.1 µg/mL (≈ 0.244 µM)
[10]; (GM) of the Proteus vulgaris strains, read-out: Geometric mean of MIC
  MIC: 1 µg/mL (≈ 2.44 µM)
[10]; strain A 9436, read-out: MIC
  MIC: 0.1 µg/mL (≈ 0.244 µM)
[10]; strain A 9526, read-out: MIC
  MIC: 3.1 µg/mL (≈ 7.57 µM)
[10]; strain A 9699, read-out: MIC
  MIC: 1.6 µg/mL (≈ 3.91 µM)
[10]; strain AKH-26, read-out: MIC
  MIC: > 50 µg/mL
[10]; strain HX-19 MS-1, read-out: MIC
  MIC: 0.1 µg/mL (≈ 0.244 µM)
[10]; strain OX-19 MS-1, read-out: MIC
  MIC: 0.2 µg/mL (≈ 0.488 µM)
[11]; (GM) of the Providencia rettgeri strains, read-out: Geometric mean of MIC
  MIC: 0.015 µg/mL (≈ 0.0366 µM)
[11]; IFO3850, strain IFO 3850 MS-1, read-out: MIC
  MIC: < 0.0063 µg/mL
[11]; strain A 9637, read-out: MIC
  MIC: < 0.0063 µg/mL
[11]; strain A15167 (first line), read-out: MIC
  MIC: < 0.0063 µg/mL
[11]; strain A15167 (second line), read-out: MIC
  MIC: 0.013 µg/mL (≈ 0.0317 µM)
[11]; strain A20645, read-out: MIC
  MIC: 0.4 µg/mL (≈ 0.977 µM)
[11]; strain A20915, read-out: MIC
  MIC: 0.8 µg/mL (≈ 1.95 µM)
[11]; strain A20920, read-out: MIC
  MIC: < 0.0063 µg/mL
[11]; strain A20921, read-out: MIC
  MIC: < 0.0063 µg/mL
[11]; strain A21205, read-out: MIC
  MIC: 0.025 µg/mL (≈ 0.0611 µM)
[11]; strain A21270, read-out: MIC
  MIC: 0.025 µg/mL (≈ 0.0611 µM)
[12]; (GM) of the Serratia marcescens strains, read-out: Geometric mean of MIC
  MIC: 13 µg/mL (≈ 31.7 µM)
[12]; strain A20019, read-out: MIC
  MIC: 1.6 µg/mL (≈ 3.91 µM)
[12]; strain A20222, read-out: MIC
  MIC: 3.1 µg/mL (≈ 7.57 µM)
[12]; strain A20333, read-out: MIC
  MIC: > 50 µg/mL
[12]; strain A20334, read-out: MIC
  MIC: > 50 µg/mL
[12]; strain A20335, read-out: MIC
  MIC: 1.6 µg/mL (≈ 3.91 µM)
[12]; strain A20336, read-out: MIC
  MIC: 3.1 µg/mL (≈ 7.57 µM)
[12]; strain A20442, read-out: MIC
  MIC: 3.1 µg/mL (≈ 7.57 µM)
[12]; strain A20459, read-out: MIC
  MIC: > 50 µg/mL
[12]; strain A20460, read-out: MIC
  MIC: 12.5 µg/mL (≈ 30.5 µM)
[12]; strain A20461, read-out: MIC
  MIC: > 50 µg/mL
[13]; (GM) of the Serratia species strains, read-out: Geometric mean of MIC
  MIC: 44 µg/mL (≈ 107 µM)
[13]; strain 6-330, read-out: MIC
  MIC: 3.1 µg/mL (≈ 7.57 µM)
[13]; strain 6-427, read-out: MIC
  MIC: 3.1 µg/mL (≈ 7.57 µM)
[13]; strain 6-920, read-out: MIC
  MIC: > 50 µg/mL
[13]; strain 7-255, read-out: MIC
  MIC: > 50 µg/mL
[13]; strain 7-454, read-out: MIC
  MIC: > 50 µg/mL
[13]; strain 7-2322, read-out: MIC
  MIC: > 50 µg/mL
[13]; strain 8-185, read-out: MIC
  MIC: > 50 µg/mL
[13]; strain 8-513, read-out: MIC
  MIC: 25 µg/mL (≈ 61.1 µM)
[13]; strain 8-785, read-out: MIC
  MIC: > 50 µg/mL
[13]; strain 8-1537, read-out: MIC
  MIC: 25 µg/mL (≈ 61.1 µM)
[13]; strain 9-50, read-out: MIC
  MIC: > 50 µg/mL
[13]; strain 9-690, read-out: MIC
  MIC: > 50 µg/mL
